Laboratory results: the supplement of paper PMC10307832

What was measured:
Experiment in all cases: relative viability (nuclei count vs DMSO), 5 days (fraction); higher = more cells survive
IMD-0354 + Navitoclax = compound: O=C(Nc1cc(C(F)(F)F)cc(C(F)(F)F)c1)c1cc(Cl)ccc1O [IMD-0354] + CC1(C)CCC(c2ccc(Cl)cc2)=C(CN2CCN(c3ccc(C(=O)NS(=O)(=O)c4ccc(N[C@H](CCN5CCOCC5)CSc5ccccc5)c(S(=O)(=O)C(F)(F)F)c4)cc3)CC2)C1 [Navitoclax] (partner 0.5 µM)
In short: (§1)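 For relative viability, nuclei counts in treated wells were divided by those in vehicle wells. Lung cancer cell lines had been pin-tool dosed in 1536-well plates the day after seeding and cultured for 5 days, then fixed and stained in one step (final 0.05% Triton X-100, 1% formaldehyde, 1 ug/ml Hoechst) and imaged at 4×. Doses were one drug alone or a fixed anchor-drug dose plus five library-drug doses (not always all listed) in √10 steps, and values are duplicate-plate medians.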

IMD-0354 = compound: O=C(Nc1cc(C(F)(F)F)cc(C(F)(F)F)c1)c1cc(Cl)ccc1O [IMD-0354]
In short: (§2)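 Viability was defined as treated-well nuclei divided by vehicle-well nuclei, with the median taken over replicate plates. Cells from lung cancer lines sat overnight at 37 °C in 1536-well plates, received five √10-spaced library-drug doses by pinning on vehicle-anchored plates, and grew 5 days without medium change before one-step fixation, permeabilisation and Hoechst staining, 4× imaging and MetaXpress nuclear counts. Only plates with control CV under 25% and at least one doubling were kept.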

CX-5461 = compound: Cc1cnc(CNC(=O)c2c(=O)c3ccc(N4CCCN(C)CC4)nc3n3c2sc2ccccc23)cn1 [CX-5461]
In short: as §2

CX-5461 + Trametinib = compound: Cc1cnc(CNC(=O)c2c(=O)c3ccc(N4CCCN(C)CC4)nc3n3c2sc2ccccc23)cn1 [CX-5461] + CC(=O)Nc1cccc(-n2c(=O)n(C3CC3)c(=O)c3c(Nc4ccc(I)cc4F)n(C)c(=O)c(C)c32)c1 [Trametinib] (partner 0.02 µM)
In short: as §1

Cell Line	relative viability (IMD-0354 + Navitoclax; first compound 0.04 µM)	relative viability (IMD-0354 + Navitoclax; first compound 0.1265 µM)	relative viability (IMD-0354 + Navitoclax; first compound 0.4 µM)	relative viability (IMD-0354 + Navitoclax; first compound 1.265 µM)	relative viability (IMD-0354 + Navitoclax; first compound 4 µM)	relative viability (IMD-0354; 0.04 µM)	relative viability (IMD-0354; 0.1265 µM)	relative viability (IMD-0354; 0.4 µM)	relative viability (IMD-0354; 1.265 µM)	relative viability (IMD-0354; 4 µM)	relative viability (CX-5461; 0.01 µM)	relative viability (CX-5461; 0.03162 µM)	relative viability (CX-5461; 0.1 µM)	relative viability (CX-5461; 0.3162 µM)	relative viability (CX-5461; 1 µM)	relative viability (CX-5461 + Trametinib; first compound 0.01 µM)	relative viability (CX-5461 + Trametinib; first compound 0.03162 µM)	relative viability (CX-5461 + Trametinib; first compound 0.1 µM)	relative viability (CX-5461 + Trametinib; first compound 0.3162 µM)	relative viability (CX-5461 + Trametinib; first compound 1 µM)
Calu-6	0.94	0.903	0.355	0.122	0.104	0.947	0.913	0.648	0.181	0.125	1.08	1.07	1.03	0.987	0.385	–	–	–	–	–
SW 1573	1.15	0.948	0.421	0.571	0.102	1.15	0.916	0.548	0.22	0.13	0.94	0.978	0.689	0.656	0.33	0.496	0.513	0.126	0.566	0.16
PC-3 [JPC-3]	0.712	0.823	0.638	0.527	0.264	1.06	1.03	0.829	0.341	0.306	1.03	1.05	1.11	1.01	0.974	0.822	–	0.719	0.749	0.644
EMC-BAC-2	1.2	1.17	0.617	0.977	0.219	1.02	0.962	0.675	0.425	0.383	0.962	0.909	0.769	0.818	0.488	0.91	0.888	0.629	0.45	0.429
NCI-H1299	0.981	1.08	0.259	0.442	0.146	0.85	1.02	0.638	0.221	0.179	0.998	0.99	1.02	1.01	0.944	–	–	–	–	–
LCLC-103H	–	–	–	–	–	1.02	1.01	0.653	0.457	0.331	1.02	1.05	0.969	0.944	0.969	0.629	0.687	0.626	0.674	0.663
ABC-1	–	–	–	–	–	1.07	1.05	0.498	0.222	0.259	1.04	0.785	0.712	0.309	0.568	–	–	–	–	–
NCI-H650	–	–	–	–	–	1.13	0.954	0.594	0.555	0.214	0.919	1.02	0.788	0.879	0.768	1.06	0.938	0.991	1.05	0.911
NCI-H1648	–	–	–	–	–	0.588	0.686	0.685	0.814	0.365	0.614	0.952	0.674	0.742	0.851	0.47	0.514	0.488	0.534	0.509
NCI-H661	–	–	–	–	–	0.999	0.955	0.646	0.291	0.305	1.04	0.978	1.02	0.626	0.835	0.647	0.621	0.544	0.432	0.376
NCI-H1563	–	–	–	–	–	0.979	0.974	0.856	0.472	0.402	0.963	0.954	0.806	0.939	0.64	–	–	–	–	–
A549	1.37	1.19	0.54	0.0726	0.0514	1.11	0.991	0.496	0.229	0.109	0.969	0.96	0.748	0.811	0.193	–	–	–	–	–
NCI-H522	–	–	–	–	–	0.934	0.848	0.909	0.7	0.406	0.98	0.944	0.946	–	0.951	0.734	0.86	0.815	–	0.751
NCI-H358	–	–	–	–	–	1.01	1	0.557	0.232	0.274	0.971	1.02	0.872	0.871	0.633	0.125	0.108	0.0974	0.102	0.0846
NCI-H1623	–	–	–	–	–	0.962	1	1.02	0.992	0.451	1.18	0.979	0.904	0.674	0.94	–	–	–	–	–
SW 900	–	–	–	–	–	0.987	0.889	0.509	0.239	0.243	0.918	1.11	0.586	0.877	0.401	0.664	0.84	–	0.548	0.829
IA-LM	0.778	0.662	0.381	0.122	0.0656	0.791	0.875	0.529	0.389	0.128	0.987	0.933	1	1.03	0.561	–	–	–	–	–
EBC-1	0.41	0.374	0.334	0.144	0.185	0.914	0.971	0.585	0.304	0.205	1.01	1.05	1.08	0.907	0.782	–	–	–	–	–
